From patent US20170253607A1, “LONG-ACTING HIV PROTEASE INHIBITOR” (Shionogi & Co., Ltd., priority 2014, published 2017)

Legend:
HIV-1 PR = HIV-1 PR (Human immunodeficiency virus type 1 group M subtype B, UniProt P04585); assay: HIV-protease inhibitory activity assay (FRET peptide substrate); type: biochemical; conditions: Test Example 1
Method in brief: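 HIV-1 PR (0.83 ng) preincubated with compounds 20 min at room temperature in 0.1 mol/L NaAc, 0.5 mol/L NaCl, 1 mmol/L EDTA, 1 mmol/L DTT, 0.05% Tween 20, pH 4.8. Cleavage of HiLyte Fluor 488/QXL 520 FRET peptide (2 μmol/L) read after 60 minutes at 485/535 nm; IC50 from four-parameter logistic fit.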

[1] = Evaluation of total body clearance (CLtot), intravenous administration; type: in vivo, Sprague-Dawley (SD); conditions: rat (SD), intravenous administration 0.5-10 mg/kg; CLtot = dose/AUC
Method in brief: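 Plasma levels quantified by LC/MS/MS after intravenous tail-vein dosing (0.5-10 mg/kg, compound-dependent; n=2-3). AUC from pharmacokinetic analysis; total clearance calculated as dose/AUC.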

SMILES: COc1ccc(S(=O)(=O)N(CC(C)C)CC(O)C(Cc2ccc(N(C)Cc3cc(N4CCCC4=O)ccc3-c3sc4c(c3C(=O)O)CC(C)(C)CC4)cc2)NC(=O)OC2COC3(C)OCCC23)cc1 (centres unmarked) [Compound I-584]
- IC50 (HIV-1 PR): 2.3 nM
- rat_CLt [1]: 0.77 mL/min/kg

SMILES: CC1(C)CCc2sc(NC(=O)c3ccccc3CNc3ccc(CC(NC(=O)OC4COC5OCCC45)C(O)CN(CC4CCC4)S(=O)(=O)c4ccc5ncsc5c4)cc3)c(C(=O)O)c2C1 (centres unmarked) [Compound I-862]
- IC50 (HIV-1 PR): 2.61 nM
- rat_CLt [1]: 0.14 mL/min/kg

SMILES: COc1ccc(S(=O)(=O)N(CC(C)C)CC(O)C(Cc2ccc(N3CCC(Oc4cc(N(C)C)ccc4-c4sc5c(c4C(=O)O)CC(C)(C)CC5)C3)cc2)NC(=O)OC2COC3(C)OCCC23)cc1 (centres unmarked) [Compound I-606]
- IC50 (HIV-1 PR): 2.25 nM
- rat_CLt [1]: 2.2 mL/min/kg

SMILES: COc1ccc(S(=O)(=O)N(CC(C)C)CC(O)C(Cc2ccc(N(C)Cc3cc(-c4sc5c(c4C(=O)O)CC(C)(C)CC5)co3)cc2)NC(=O)OC2COC3(C)OCCC23)cc1 (centres unmarked) [Compound I-448]
- IC50 (HIV-1 PR): 2.31 nM
- rat_CLt [1]: 5.28 mL/min/kg

SMILES: COc1ccc(S(=O)(=O)N(CC(C)C)CC(O)C(Cc2ccc(N(C)Cc3cccc(C)c3-c3sc4c(c3C(=O)O)CC(C)(C)CC4)cc2)NC(=O)OC2COC3(C)OCCC23)cc1 (centres unmarked) [Compound I-599]
- IC50 (HIV-1 PR): 2.46 nM
- rat_CLt [1]: 0.479 mL/min/kg

SMILES: CC1(C)CCc2sc(NC(=O)c3ccccc3CNc3ccc(CC(NC(=O)OC4COC5(C)OCCC45)C(O)CN(CC4CCC4)S(=O)(=O)c4ccc5c(c4)OCO5)cc3)c(C(=O)O)c2C1 (centres unmarked) [Compound I-613]
- IC50 (HIV-1 PR): 2.55 nM
- rat_CLt [1]: 0.0573 mL/min/kg

SMILES: COc1ccc(S(=O)(=O)N(CC(C)C)CC(O)C(Cc2ccc(NCc3cc4ccsc4nc3-c3sc4c(c3C(=O)O)CC(C)(C)CC4)cc2)NC(=O)OC2COC3(C)OCCC23)cc1 (centres unmarked) [Compound I-649]
- IC50 (HIV-1 PR): 2.25 nM
- rat_CLt [1]: 0.622 mL/min/kg

SMILES: COc1ccc(S(=O)(=O)N(CC(C)C)CC(O)C(Cc2ccc(NCc3ccccc3NC(=O)c3sc4c(c3C(=O)O)CC(C)(C)CC4)cc2)NC(=O)OC2COC3(C)OCCC23)cc1 (centres unmarked) [Compound I-574]
- IC50 (HIV-1 PR): 2.93 nM
- rat_CLt [1]: 1.01 mL/min/kg

SMILES: C=CCNc1ccc(-c2sc3c(c2C(=O)O)CC(C)(C)CC3)c(CNc2ccc(CC(NC(=O)OC3COC4(C)OCCC34)C(O)CN(CC(C)C)S(=O)(=O)c3ccc(OC)cc3)cc2)c1 (centres unmarked) [Compound I-676]
- IC50 (HIV-1 PR): 2.42 nM
- rat_CLt [1]: 0.145 mL/min/kg

SMILES: CC1(C)CCc2sc(NC(=O)c3ccccc3CNc3ccc(CC(NC(=O)OC4COC5OCCC45)C(O)CN(CC4CCCC4)S(=O)(=O)c4ccc5ncsc5c4)cc3)c(C(=O)O)c2C1 (centres unmarked) [Compound I-859]
- IC50 (HIV-1 PR): 3.41 nM
- rat_CLt [1]: 0.2 mL/min/kg

SMILES: COc1ccc(S(=O)(=O)N(CC(C)C)CC(O)C(Cc2ccc(N3CCC(c4ccccc4-c4sc5c(c4C(=O)O)CC(C)(C)CC5)C3)cc2)NC(=O)OC2COC3(C)OCCC23)cc1 (centres unmarked) [Compound I-522]
- IC50 (HIV-1 PR): 13.6 nM
- rat_CLt [1]: 0.144 mL/min/kg

SMILES: COc1ccc(S(=O)(=O)N(CC(C)C)CC(O)C(Cc2ccc(NCc3ncccc3-c3sc4c(c3C(=O)O)CC(C)(C)CC4)cc2)NC(=O)OC2COC3(C)OCCC23)cc1 (centres unmarked) [Compound I-305]
- IC50 (HIV-1 PR): 1.99 nM
- rat_CLt [1]: 1.55 mL/min/kg

SMILES: COc1ccc(S(=O)(=O)N(CC(C)C)CC(O)C(Cc2ccc(NCc3cc(OC)ccc3-c3sc4c(c3C(=O)O)CC(C)(C)CC4)cc2)NC(=O)OC2COC3(C)OCCC23)cc1 (centres unmarked) [Compound I-566]
- IC50 (HIV-1 PR): 1.61 nM
- rat_CLt [1]: 0.727 mL/min/kg
